Columns and labels:
ScoDasR (DasR^Sco) = biological target: T1, ScoDasR (DasR^Sco) (Streptomyces coelicolor, UniProt Q9K492); test: isothermal titration calorimetry; type: binding
T1 construct: full-length, His-tagged, expressed in E. coli BL21(DE3), Ni-NTA purified; GntR family, predominantly dimer
T1 sequence (Q9K492 1-254): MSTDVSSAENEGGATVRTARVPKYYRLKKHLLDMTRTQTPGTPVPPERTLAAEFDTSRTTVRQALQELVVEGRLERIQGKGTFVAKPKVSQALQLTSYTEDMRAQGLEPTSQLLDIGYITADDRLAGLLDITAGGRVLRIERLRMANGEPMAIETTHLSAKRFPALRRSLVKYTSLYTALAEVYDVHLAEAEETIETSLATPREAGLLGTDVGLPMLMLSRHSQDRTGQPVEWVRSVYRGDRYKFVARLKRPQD

[1] = biological target: T2, DasR (His-DasR) of S. erythraea (Saccharopolyspora erythraea, UniProt A4F723); test: isothermal titration calorimetry; type: binding
T2 construct: gene SACE_0500; full-length, His-tagged, expressed in E. coli BL21(DE3), Ni-NTA purified; predominantly dimer (c-di-AMP promotes dimerization)
T2 sequence (A4F723 1-251): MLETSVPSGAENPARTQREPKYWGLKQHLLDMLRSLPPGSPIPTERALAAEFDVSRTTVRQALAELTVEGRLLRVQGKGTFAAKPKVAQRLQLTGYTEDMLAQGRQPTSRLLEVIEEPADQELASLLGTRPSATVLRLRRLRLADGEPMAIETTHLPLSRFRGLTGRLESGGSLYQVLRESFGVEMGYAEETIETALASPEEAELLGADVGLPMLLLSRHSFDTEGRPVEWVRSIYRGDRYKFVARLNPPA

[2] = test system: DasR (Saccharopolyspora erythraea); test: BLI; details: EMSA: 10 mM Tris-HCl pH 8.0, 25 mM MgCl2, 50 mM NaCl, 1 mM DTT, 1 mM EDTA, 0.01% NP-40, 50 ug/mL poly(dIdC), 10% glycerol, 18 C, 30 min, BLI: 10 mM HEPES pH …

Kd (ScoDasR (DasR^Sco)) [µM]	Kd [1] [µM]	Molecule	Kd ([2]; 100 uM c-di-AMP) [µM]	Kd ([2]; no c-di-AMP) [µM]
23	26.8	Nc1ncnc2c1ncn2[C@@H]1O[C@@H]2COP(=O)(O)O[C@H]3[C@@H](O)[C@H](n4cnc5c(N)ncnc54)O[C@@H]3COP(=O)(O)O[C@H]2[C@H]1O [c-di-AMP]	–	–
–	–	nagA promoter	0.44	19

Reference: PMC11076491, “Allosteric regulation by c-di-AMP modulates a complete N-acetylglucosamine signaling cascade in Saccharopolyspora erythraea” (Nature Communications, 2024)
